Data reported in patent publication US10059667B2, “Antidiabetic compounds” (MERCK SHARP & DOHME CORP., priority 2014, dated 2018).

Molecular target: Human GPR40 (Homo sapiens (Human), UniProt O14842)
Assay: Inositol Phosphate Turnover (IP1) Assay 1, HEK cells stably expressing human GPR40, 3H-inositol SPA
Type: cell-based
Conditions: HEK cells stably expressing human GPR40, 96-well
Protocol: Human and mouse GPR40 stable cell-lines were generated in CHO cells stably expressing NFAT BLA (Beta-lactamase). A human GPR40 stable cell-line was generated in HEK cells stably expressing the aequorin expressing reporter. The expression plasmids were transfected using lipofectamine (Life Technologies) following manufacturer's instructions. Stable cell-lines were generated following drug selection.
The assay was performed in 96-well format. HEK cells stably expressing human GPR40 were plated to be 60-80% confluent within 72 h. After 72 h, the plates were aspirated and the cells washed with inositol-free DMEM (ICN). The wash media was replaced with 150 μL of 3H-inositol labeling media (inositol-free media containing 0.4% human albumin or 0.4% mouse albumin, 1× pen/strep antibiotics, glutamine, 25 mM HEPES to which was added 3H-myo-inositol NEN #NET114A 1 mCi/mL, 25 Ci/mmol diluted 1:150 in loading media with a final specific radioactivity of 1 μCi/150 μL). Alternatively, the human and mouse albumin can be added after the overnight labeling step before the addition of LiCl.
The assay was typically run the next day after 18 h labeling. On the day of the assay, 5 μL of 300 mM LiCl was added to all wells and incubated at 37 degrees for 20 min. 0.75 μL of each compound was added and incubated with the cells for 60 min at 37 degrees. The media was then aspirated off and the assay terminated with the addition of 60 μL 10 mM formic acid. The cells were lysed for 60 min at room temperature. 15-30 μL of lysate was mixed with 70 μL/1 mg YSi SPA beads (Amersham) in clear bottom Isoplates. The plates were shaken for 2 h at room temperature. Beads were allowed to settle and the plates were counted in the Wallac Microbeta.

Sequence of Human GPR40 (O14842 whole entry): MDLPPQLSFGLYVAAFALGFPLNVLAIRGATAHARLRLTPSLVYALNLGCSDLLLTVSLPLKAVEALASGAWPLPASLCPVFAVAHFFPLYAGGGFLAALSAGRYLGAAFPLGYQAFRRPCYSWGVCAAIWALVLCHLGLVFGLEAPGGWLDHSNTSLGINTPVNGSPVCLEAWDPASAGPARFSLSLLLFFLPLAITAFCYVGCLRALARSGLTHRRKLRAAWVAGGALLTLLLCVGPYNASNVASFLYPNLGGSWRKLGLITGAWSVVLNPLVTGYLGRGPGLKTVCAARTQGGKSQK

EC50 [nM] | Compound
262 | C[C@H](C(=O)O)[C@H](c1cccc(OCC2CC(Oc3cccc(C(F)(F)F)c3)C2)c1)C1CC1 (some centres unmarked) [Example 136]
1960 | C[C@H](C(=O)O)[C@H](c1cccc(OCC2CC(Oc3cccnc3)C2)c1)C1CC1 (some centres unmarked) [Example 110]
177 | C[C@H](C(=O)O)[C@H](c1cccc(OCC2CCN(c3cccc(C(F)(F)F)n3)CC2)c1)C1CC1 [Example 37]
188 | COc1ccc(OC)c([C@H]2C[C@@H]2COc2cccc([C@H](C3CC3)[C@H](C)C(=O)O)c2)c1 [Example 139]
8230 | COc1ncc(OC2CC(COc3cccc([C@H](C4CC4)[C@H](C)C(=O)O)c3)C2)cn1 (some centres unmarked) [Example 96]
802 | COc1ncc([C@H]2C[C@@H]2COc2cccc([C@H](C3CC3)[C@H](C)C(=O)O)c2)cc1F [Example 149]
565 | COc1ccc(OC2CC(COc3cccc([C@H](C4CC4)[C@H](C)C(=O)O)c3)C2)cc1 (some centres unmarked) [Example 125]
4470 | COc1cncc([C@H]2C[C@@H]2COc2cccc([C@H](C3CC3)[C@H](C)C(=O)O)c2)c1 [Example 150]
56 | COc1ccnc(OC2CC(COc3cccc([C@H](C4CC4)[C@H](C)C(=O)O)c3)C2)c1 (single isomer, unassigned) [Example 105]
94 | COc1cccc(C2CC2COc2cccc([C@H](C3CC3)[C@H](C)C(=O)O)c2)c1 (single isomer, unassigned) [Example 83]
98 | Cc1ccc(F)c(OC2CC(COc3cccc([C@H](C4CC4)[C@H](C)C(=O)O)c3)C2)c1 (single isomer, unassigned) [Example 119]
7190 | C[C@H](C(=O)O)[C@H](c1cccc(OCC2CC(Oc3cccnc3)C2)c1)C1CC1 (some centres unmarked) [Example 109]
147 | CC(C)Oc1ccccc1OC1CC(COc2cccc([C@H](C3CC3)[C@H](C)C(=O)O)c2)C1 (single isomer, unassigned) [Example 126]
130 | C[C@H](C(=O)O)[C@H](c1cccc(OC[C@H]2C[C@@H]2c2cc(C(F)(F)F)ccc2F)c1)C1CC1 [Example 157]
109 | CCOc1ccccc1OC1CC(COc2cccc([C@H](C3CC3)[C@H](C)C(=O)O)c2)C1 (some centres unmarked) [Example 112]
223 | C[C@H](C(=O)O)[C@H](c1cccc(OC[C@H]2C[C@@H]2c2cc(OC(F)(F)F)ccc2F)c1)C1CC1 [Example 145]
187 | C[C@H](C(=O)O)[C@H](c1cccc(OCC2CC(Oc3ccccn3)C2)c1)C1CC1 (some centres unmarked) [Example 103]
166 | COc1cccc(C2CC2COc2cccc([C@H](C3CC3)[C@H](C)C(=O)O)c2)c1 (some centres unmarked) [Example 69]
385 | C[C@H](C(=O)O)[C@H](c1cccc(OC[C@H]2C[C@@H]2c2ccc(F)c(C(F)(F)F)c2)c1)C1CC1 [Example 144]
175 | C[C@H](C(=O)O)[C@H](c1cccc(OC[C@H]2C[C@@H]2c2cc(C(F)(F)F)ccc2Cl)c1)C1CC1 [Example 143]

EC50 [nM] | Compound
1210 | CCOc1ccc(OC2CC(COc3cccc([C@H](C4CC4)[C@H](C)C(=O)O)c3)C2)cc1 (some centres unmarked) [Example 113]
72 | COc1ccccc1OC1CC(COc2cccc([C@H](C3CC3)[C@H](C)C(=O)O)c2)C1 (some centres unmarked) [Example 128]
22 | COc1cccc(OC2CC(COc3cccc([C@H](C4CC4)[C@H](C)C(=O)O)c3)C2)c1 (single isomer, unassigned) [Example 65]
561 | C[C@H](C(=O)O)[C@H](c1cccc(OCC2CC(Oc3cccc(-c4ccccc4)c3)C2)c1)C1CC1 (single isomer, unassigned) [Example 121]
172 | COc1cccc(C2CC2COc2cccc([C@H](C3CC3)[C@H](C)C(=O)O)c2)c1 (stereo partly drawn) [Example 82, (2S,3R)-3-cyclopropyl-3-(3-((2-(3-methoxyphenyl)cyclopropyl)methoxy)phenyl)-2-methylpropanoic acid]
23 | C[C@H](C(=O)O)[C@H](c1cccc(OCC2CCN([C@@H](C)c3cc(C(F)(F)F)ccc3C(F)(F)F)C2)c1)C1CC1 (some centres unmarked) [Example 41]
12 | COc1ccc(F)c(OC2CC(COc3cccc([C@H](C4CC4)[C@H](C)C(=O)O)c3)C2)c1 (single isomer, unassigned) [Example 80]
408 | C[C@H](C(=O)O)[C@H](c1cccc(OCC2CC2Cc2ccccc2)c1)C1CC1 (some centres unmarked) [Example 67]
43 | COc1ccc(F)c(OC2CC(COc3cccc([C@H](C4CC4)[C@H](C)C(=O)O)c3)C2)c1 (some centres unmarked) [Example 73]
472 | COc1ccc([C@H]2C[C@@H]2COc2cccc([C@H](C3CC3)[C@H](C)C(=O)O)c2)cc1 [Example 159]
109 | COc1cccc(F)c1OC1CC(COc2cccc([C@H](C3CC3)[C@H](C)C(=O)O)c2)C1 (single isomer, unassigned) [Example 129]
139 | COc1cccc(F)c1OC1CC(COc2cccc([C@H](C3CC3)[C@H](C)C(=O)O)c2)C1 (single isomer, unassigned) [Example 130]
12 | CCC(c1cc(C(F)(F)F)ccc1C(F)(F)F)N1CC(COc2cccc([C@H](C3CC3)[C@H](C)C(=O)O)c2)C1 (some centres unmarked) [Example 36]
54 | COc1cc(OC2CC(COc3cccc([C@H](C4CC4)[C@H](C)C(=O)O)c3)C2)c(F)cn1 (some centres unmarked) [Example 106]
930 | COc1cc(C2CC(COc3cccc([C@H](C4CC4)[C@H](C)C(=O)O)c3)C2)ccn1 (single isomer, unassigned) [Example 88]
152 | C[C@H](C(=O)O)[C@H](c1cccc(OCC2CC(Oc3ccccc3Cl)C2)c1)C1CC1 (single isomer, unassigned) [Example 133]
201 | C[C@H](C(=O)O)[C@H](c1cccc(OCC2CC(c3ccccc3)C2)c1)C1CC1 (some centres unmarked) [Example 72]
176 | C[C@H](C(=O)O)[C@H](c1cccc(OC[C@H]2C[C@@H]2c2cccc(OC(F)(F)F)c2)c1)C1CC1 [Example 137]
102 | COc1cc(C2CC(COc3cccc([C@H](C4CC4)[C@H](C)C(=O)O)c3)C2)ccn1 (some centres unmarked) [Example 86]
13 | C[C@H](C(=O)O)[C@H](c1cccc(OCC2CCN(c3ncccc3C(F)(F)F)CC2)c1)C1CC1 [Example 38]

EC50 [nM] | Compound
34 | COc1ccc(F)c([C@@H]2C[C@H]2COc2cccc([C@H](C3CC3)[C@H](C)C(=O)O)c2)c1 [Example 75]
307 | C[C@H](C(=O)O)[C@H](c1cccc(OCC2CC(Oc3cccc4c3OC(C)(C)C4)C2)c1)C1CC1 (some centres unmarked) [Example 135]
355 | C[C@H](C(=O)O)[C@H](c1cccc(OC[C@H]2C[C@@H]2c2ccc(Cl)c(C(F)(F)F)c2)c1)C1CC1 [Example 156]
26 | COc1ccc(Cl)c([C@H]2C[C@@H]2COc2cccc([C@H](C3CC3)[C@H](C)C(=O)O)c2)c1 [Example 158]
3450 | C[C@H](C(=O)O)[C@H](c1cccc(OCC2CC(Oc3ccc4c(c3)COC4=O)C2)c1)C1CC1 (single isomer, unassigned) [Example 107]
325 | COc1cc(F)c([C@H]2C[C@@H]2COc2cccc([C@H](C3CC3)[C@H](C)C(=O)O)c2)cc1F [Example 153]
25 | C[C@H](C(=O)O)[C@H](c1cccc(OCC2CCN([C@H](C)c3cc(C(F)(F)F)ccc3C(F)(F)F)C2)c1)C1CC1 (some centres unmarked) [Example 40]
7220 | C[C@H](C(=O)O)[C@H](c1cccc(OCC2CC(Oc3ccnn3C)C2)c1)C1CC1 (some centres unmarked) [Example 101]
110 | C[C@H](C(=O)O)[C@H](c1cccc(OCC2CC(Oc3cc(F)ccc3F)C2)c1)C1CC1 (some centres unmarked) [Example 115]
60 | COc1cccc(OC2CC(COc3cccc([C@H](C4CC4)[C@H](C)C(=O)O)c3)C2)c1 (stereo partly drawn) [Example 64, (2S,3R)-3-Cyclopropyl-3-(3-((3-(3-methoxyphenoxy)cyclobutyl)methoxy)phenyl)-2-methylpropanoic acid]
85 | C[C@H](C(=O)O)[C@H](c1cccc(OCC2CC(Oc3ccccc3Cl)C2)c1)C1CC1 (single isomer, unassigned) [Example 134]
1390 | C[C@H](C(=O)O)[C@H](c1cccc(OCC2CC(Oc3ccc(OC(F)F)nc3)C2)c1)C1CC1 (some centres unmarked) [Example 95]
3100 | C[C@H](C(=O)O)[C@H](c1cccc(OCC2CC(Oc3ccnc4c3OCCO4)C2)c1)C1CC1 (some centres unmarked) [Example 111]
89 | C[C@H](C(=O)O)[C@H](c1cccc(OC[C@H]2C[C@@H]2c2cc(Cl)ccc2F)c1)C1CC1 [Example 152]
577 | COc1ccc(OC2CC(COc3cccc([C@H](C4CC4)[C@H](C)C(=O)O)c3)C2)cc1 (some centres unmarked) [Example 124]
109 | COc1cc(F)cc([C@H]2C[C@@H]2COc2cccc([C@H](C3CC3)[C@H](C)C(=O)O)c2)c1 [Example 141]
181 | COc1cc(OC2CC(COc3cccc([C@H](C4CC4)[C@H](C)C(=O)O)c3)C2)ccn1 (some centres unmarked) [Example 93]
316 | C[C@H](C(=O)O)[C@H](c1cccc(OC[C@H]2C[C@@H]2c2cc(C(F)(F)F)ccc2C(F)(F)F)c1)C1CC1 [Example 155]
119 | COc1cccc(OC2CC(COc3cccc([C@H](C4CC4)[C@H](C)C(=O)O)c3)C2)c1 (single isomer, unassigned) [Example 66]
